Test results as given in patent EP0144170B1, “Biosynthesis of unnatural cephalosporins” (QUEEN'S UNIVERSITY AT KINGSTON, priority 1983, dated 1985).
Where “and” joins values, the source holds several entries; their conditions need not be identical. Equal values may be shown once.

System: Escherichia coli. ess.
Assay: Agar diffusion bioassay of diluted original antibiotic solutions (Example 9)
Format: cell-based
Parameters: unit not given here
Settings: in duplicate, indicator organism Escherichia coli. ess.
Protocol: Example 2(a) above was repeated using SCV (15) as the starting material. [drawing 27] Antibiotic in reaction mixtures was estimated by the agar diffusion method. Cyclization reaction mixtures were bioassayed using Micrococcus luteus ATCC 9341 and Escherichia coli Ess as indicator organisms. Ring expansion reaction mixtures were bioassayed using E. coli Ess as indicator organism in agar plates supplemented with penicillinase at 2 x 10^5 units/ml.
One hour after the antibiotics were administered blood was collected from the rats into sterile citrate containing syringes. Blood samples were centrifuged to sediment red blood cells and 20 micro litre amounts of plasma were bioassayed in duplicate using Escherichia coli. ess. as the indicator organism. Original antibiotic solutions were also diluted and bioassayed in duplicate.

SMILES	bioassay of original antibiotic solution (1 microgram per millilitre)	bioassay of original antibiotic solution (10 micrograms per millilitre)
CC1=C(C(=O)O)N2C(=O)[C@@H](NC(=O)CSCC(N)C(=O)O)[C@H]2SC1 (stereo partly shown) [(17), Carboxymethylcysteinyl-Desacetoxycephalosporin C]	17.5 and 17.0	33
CC(=O)OCC1=C(C(=O)[O-])N2C(=O)[C@@H](NC(=O)CCCC(N)C(=O)O)[C@H]2SC1.[Na+] (stereo partly shown) [Na-Ceph-C, reference compound]	8.8	23.5
